Tests used:
Format in all cases: in vivo
[1] = test system: foxtail, giant (giant foxtail, Setaria faberii); assay: Test E greenhouse herbicide test, pre- and postemergence; conditions: Preemergence
How it was run: (§1)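 Scores (0–100, visual, vs controls) reflect greenhouse growth of 14 to 21 d after treatment. Application was pre-emergence to silt loam or post-emergence at the 1- to 4-leaf stage.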

kochia (Kochia scoparia) = assay: as above
How it was run: as §1

[2] = test system: johnsongrass (Sorghum halepense); assay: as above; conditions: Preemergence
How it was run: as §1

[3] = test system: dayflower (Virginia (VA) dayflower, Commelina virginica); assay: as above
How it was run: as §1

[4] = test system: panicum, fall (fall panicum, Panicum dichotomiflorum); assay: as above
How it was run: as §1

soybean (Glycine max) = assay: as above
How it was run: as §1

corn (Zea mays) = assay: as above
How it was run: as §1

[5] = test system: nutsedge, yellow (yellow nutsedge, Cyperus esculentus); assay: as above; conditions: Preemergence
How it was run: as §1

[6] = test system: crabgrass, Brazilian (Brazilian crabgrass, Digitaria horizontalis); assay: as above
How it was run: as §1

[7] = test system: velvetleaf (Abutilon theophrasti); assay: as above; conditions: Preemergence
How it was run: as §1

[8] = test system: foxtail, green (green foxtail, Setaria viridis); assay: as above; conditions: Preemergence
How it was run: as §1

[9] = test system: lambsquarters (Chenopodium album); assay: as above; conditions: Preemergence
How it was run: as §1

[10] = test system: crabgrass, large (large crabgrass, Digitaria sanguinalis); assay: as above; conditions: Preemergence
How it was run: as §1

[11] = test system: sandbur (southem sandbur, Cenchrus echinatus); assay: as above
How it was run: as §1

[12] = test system: pigweed, palmer (palmer pigweed, Amaranthus palmeri); assay: as above
How it was run: as §1

[13] = test system: waterhemp_RES1 (ALS & Triazine resistant common waterhemp, Amaranthus rudis); assay: Test E greenhouse herbicide test, postemergence
How it was run: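 Postemergence spray of formulated test chemicals onto resistant waterhemp at 1- to 4-leaf stage (2–18 cm tall), grown in peat/vermiculite potting medium. Kept in greenhouse 14 to 21 d, then visually rated against untreated controls on a 0–100 scale (0 no effect, 100 complete control).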

[14] = 62 g ai/ha, scale 0 to 100 (0 no effect, 100 complete control)
[15] = 125 g ai/ha, scale 0 to 100 (0 no effect, 100 complete control)
[16] = 31 g ai/ha, scale 0 to 100, 0 no effect, 100 complete control
[17] = 250 g ai/ha, visual, scale 0 no effect to 100 complete control
[18] = 62 g ai/ha, Postemergence, scale 0 to 100 (0 no effect, 100 complete control)
[19] = 62 g ai/ha, Preemergence, scale 0 to 100 (0 no effect, 100 complete control)
[20] = 125 g ai/ha, Postemergence, scale 0 to 100 (0 no effect, 100 complete control)
[21] = 125 g ai/ha, Preemergence, scale 0 to 100 (0 no effect, 100 complete control)
[22] = 250 g ai/ha, Postemergence, scale 0 to 100 (0 no effect, 100 complete control)
[23] = Postemergence, 31 g ai/ha, visual, scale 0 no effect to 100 complete control
[24] = Preemergence, 31 g ai/ha, scale 0 to 100, 0 no effect, 100 complete control
[25] = Preemergence, 250 g ai/ha, visual, scale 0 no effect to 100 complete control

## Cc1ccc2sc(Br)c(-c3c(O)c(C)nn(C)c3=O)c2c1 [Compound 79]
[1]; [14]
  Plant response rating, Foxtail, Giant: 70
[1]; [15]
  Plant response rating, Foxtail, Giant: 85
[1]; [16]
  Plant response rating, Foxtail, Giant: 60
[1]; [17]
  Plant response rating, Foxtail, Giant: 90
Kochia (Kochia scoparia); [18]
  Plant response rating, Kochia: 80
Kochia (Kochia scoparia); [19]
  Plant response rating, Kochia: 70
Kochia (Kochia scoparia); [20]
  Plant response rating, Kochia: 90
Kochia (Kochia scoparia); [21]
  Plant response rating, Kochia: 100
Kochia (Kochia scoparia); [22]
  Plant response rating, Kochia: 98
Kochia (Kochia scoparia); [23]
  Plant response rating, Kochia: 70
Kochia (Kochia scoparia); [24]
  Plant response rating, Kochia: 50
Kochia (Kochia scoparia); [25]
  Plant response rating, Kochia: 100
[2]; [16]
  Plant response rating, Johnsongrass: 70
[2]; [17]
  Plant response rating, Johnsongrass: 65
[3]; [18]
  Plant response rating, Dayflower, VA: 50
[3]; [19]
  Plant response rating, Dayflower, VA: 70
[3]; [20]
  Plant response rating, Dayflower, VA: 60
[3]; [21]
  Plant response rating, Dayflower, VA: 65
[3]; [22]
  Plant response rating, Dayflower, VA: 65
[3]; [23]
  Plant response rating, Dayflower, VA: 50
[3]; [24]
  Plant response rating, Dayflower, VA: 50
[3]; [25]
  Plant response rating, Dayflower, VA: 70
[4]; [18]
  Plant response rating, Panicum, Fall: 60
[4]; [19]
  Plant response rating, Panicum, Fall: 70
[4]; [20]
  Plant response rating, Panicum, Fall: 60
[4]; [21]
  Plant response rating, Panicum, Fall: 80
[4]; [22]
  Plant response rating, Panicum, Fall: 75
[4]; [23]
  Plant response rating, Panicum, Fall: 55
[4]; [24]
  Plant response rating, Panicum, Fall: 80
[4]; [25]
  Plant response rating, Panicum, Fall: 90
Soybean (Glycine max); [18]
  Plant response rating, Soybean: 10
Soybean (Glycine max); [19]
  Plant response rating, Soybean: 50
Soybean (Glycine max); [20]
  Plant response rating, Soybean: 15
Soybean (Glycine max); [21]
  Plant response rating, Soybean: 40
Soybean (Glycine max); [22]
  Plant response rating, Soybean: 10
Soybean (Glycine max); [23]
  Plant response rating, Soybean: 0
Soybean (Glycine max); [24]
  Plant response rating, Soybean: 40
Soybean (Glycine max); [25]
  Plant response rating, Soybean: 50
Corn (Zea mays); [18]
  Plant response rating, Corn: 0
Corn (Zea mays); [19]
  Plant response rating, Corn: 0
Corn (Zea mays); [20]
  Plant response rating, Corn: 0
Corn (Zea mays); [21]
  Plant response rating, Corn: 0
Corn (Zea mays); [22]
  Plant response rating, Corn: 0
Corn (Zea mays); [23]
  Plant response rating, Corn: 0
Corn (Zea mays); [24]
  Plant response rating, Corn: 0
Corn (Zea mays); [25]
  Plant response rating, Corn: 20
[5]; [14]
  Plant response rating, Nutsedge, Yellow: 60
[5]; [15]
  Plant response rating, Nutsedge, Yellow: 65
[5]; [16]
  Plant response rating, Nutsedge, Yellow: 50
[5]; [17]
  Plant response rating, Nutsedge, Yellow: 75
[6]; [18]
  Plant response rating, Crabgrass, Brazil: 20
[6]; [19]
  Plant response rating, Crabgrass, Brazil: 30
[6]; [20]
  Plant response rating, Crabgrass, Brazil: 25
[6]; [21]
  Plant response rating, Crabgrass, Brazil: 80
[6]; [22]
  Plant response rating, Crabgrass, Brazil: 40
[6]; [23]
  Plant response rating, Crabgrass, Brazil: 20
[6]; [25]
  Plant response rating, Crabgrass, Brazil: 100
[7]; [14]
  Plant response rating, Velvetleaf: 80
[7]; [15]
  Plant response rating, Velvetleaf: 95
[7]; [16]
  Plant response rating, Velvetleaf: 70
[7]; [17]
  Plant response rating, Velvetleaf: 100
[8]; [14]
  Plant response rating, Foxtail, Green: 70
[8]; [15]
  Plant response rating, Foxtail, Green: 80
[8]; [16]
  Plant response rating, Foxtail, Green: 55
[8]; [17]
  Plant response rating, Foxtail, Green: 90
[9]; [14]
  Plant response rating, Lambsquarters: 100
[9]; [15]
  Plant response rating, Lambsquarters: 100
[9]; [16]
  Plant response rating, Lambsquarters: 100
[9]; [17]
  Plant response rating, Lambsquarters: 100
[10]; [14]
  Plant response rating, Crabgrass, Large: 0
[10]; [15]
  Plant response rating, Crabgrass, Large: 20
[10]; [16]
  Plant response rating, Crabgrass, Large: 0
[10]; [17]
  Plant response rating, Crabgrass, Large: 30
[11]; [18]
  Plant response rating, Sandbur: 30
[11]; [19]
  Plant response rating, Sandbur: 70
[11]; [20]
  Plant response rating, Sandbur: 50
[11]; [21]
  Plant response rating, Sandbur: 80
[11]; [22]
  Plant response rating, Sandbur: 65
[11]; [23]
  Plant response rating, Sandbur: 20
[11]; [24]
  Plant response rating, Sandbur: 60
[11]; [25]
  Plant response rating, Sandbur: 75
[12]; [18]
  Plant response rating, Pigweed, Palmer: 35
[12]; [19]
  Plant response rating, Pigweed, Palmer: 70
[12]; [20]
  Plant response rating, Pigweed, Palmer: 40
[12]; [21]
  Plant response rating, Pigweed, Palmer: 70
[12]; [22]
  Plant response rating, Pigweed, Palmer: 75
[12]; [23]
  Plant response rating, Pigweed, Palmer: 40
[12]; [24]
  Plant response rating, Pigweed, Palmer: 75
[12]; [25]
  Plant response rating, Pigweed, Palmer: 75
[13]; 31 g ai/ha, visual, scale 0 no effect to 100 complete control
  Plant response rating, Waterhemp_RES1: 50
[13]; [14]
  Plant response rating, Waterhemp_RES1: 60
[13]; [15]
  Plant response rating, Waterhemp_RES1: 70
[13]; 250 g ai/ha, scale 0 to 100 (0 no effect, 100 complete control)
  Plant response rating, Waterhemp_RES1: 75

Reference: patent publication US10597388B2, “Pyridazinone herbicides” (FMC CORPORATION, priority 2014, dated 2020)
